Laboratory results reported in ChEMBL document CHEMBL1201861, “Genomics of Drug Sensitity in Cancer screening data, Wellcome Trust Sanger Institute”.

Columns and labels:
Assay in all cases: cells
D-566MG = assay type: functional, cell-based; details: Homo sapiens
EFO-21 = assay type: functional, cell-based, Homo sapiens; details: Homo sapiens, EFO-21;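 note: growth inhibition of EFO-21 cells measured with a viability assay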
Description: SANGER: Inhibition of human EFO-21 cell growth in a cell viability assay.

EPLC-272H = assay type: functional, cell-based; details: Homo sapiens
Description: SANGER: Inhibition of human EPLC-272H cell growth in a cell viability assay.

EW-22 = assay type: functional, cell-based; details: Homo sapiens;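 note: growth inhibition of the EW-22 cell line, measured with a cell viability readout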
Description: SANGER: Inhibition of human EW-22 cell growth in a cell viability assay.

HCC70 = assay type: functional, cell-based, Homo sapiens; details: Homo sapiens, HCC70;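 note: cell viability assay measuring how strongly the compound suppresses proliferation of HCC70 cells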
Description: SANGER: Inhibition of human HCC70 cell growth in a cell viability assay.

K5 = assay type: functional, cell-based, Homo sapiens; details: Homo sapiens, K5
KARPAS-299 = assay type: functional, cell-based; details: Homo sapiens
Description: SANGER: Inhibition of human KARPAS-299 cell growth in a cell viability assay.

KGN = assay type: functional, cell-based, Homo sapiens; details: Homo sapiens, KGN;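 note: growth inhibition of KGN cells, read out with a cell viability assay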
KNS-62 = assay type: functional, cell-based; details: Homo sapiens;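 note: inhibition of cell growth, read out with a cell viability assay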
Description: SANGER: Inhibition of human KNS-62 cell growth in a cell viability assay.

KYSE-70 cell line = assay type: functional, cell-based, Homo sapiens; details: Homo sapiens, KYSE-70;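 note: cell viability assay read-out, with IC50 expressing suppression of KYSE-70 cell growth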
Description: SANGER: Inhibition of human KYSE-70 cell growth in a cell viability assay.

MDA-MB-361 = assay type: functional, cell-based, Homo sapiens; details: Homo sapiens, MDA-MB-361
MEL-JUSO = assay type: functional, cell-based, Homo sapiens; details: Homo sapiens, MEL-JUSO;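 note: growth inhibition of human MEL-JUSO cells, read out with a cell viability assay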
Description: SANGER: Inhibition of human MEL-JUSO cell growth in a cell viability assay.

MKN-28 = assay type: functional, cell-based, Homo sapiens; details: Homo sapiens, MKN-28;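 note: cell viability assay read-out, IC50 reflects suppression of growth of human MKN-28 cells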
NCI-H1666 = assay type: functional, cell-based; details: Homo sapiens;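 note: growth inhibition of the cell line, read out with a cell viability assay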
Description: SANGER: Inhibition of human NCI-H1666 cell growth in a cell viability assay.

NCI-H2029 = assay type: functional, cell-based; details: Homo sapiens;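 note: Read-out is a viability assay on the cultured cells, and IC50 is the concentration that suppresses cell growth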
Description: SANGER: Inhibition of human NCI-H2029 cell growth in a cell viability assay.

NCI-H2030 = assay type: functional, cell-based, Homo sapiens; details: Homo sapiens, NCI-H2030;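 note: growth inhibition of human NCI-H2030 cells, read out by a cell viability assay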
Description: SANGER: Inhibition of human NCI-H2030 cell growth in a cell viability assay.

NCI-H28 = assay type: functional, cell-based, Homo sapiens; details: Homo sapiens, NCI-H28;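 note: growth inhibition of human NCI-H28 cells, read out as cell viability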
Description: SANGER: Inhibition of human NCI-H28 cell growth in a cell viability assay.

NCI-H460 = assay type: functional, cell-based, Homo sapiens; details: Homo sapiens, NCI-H460;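 note: cell viability assay scoring growth inhibition of human NCI-H460 cells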
Description: SANGER: Inhibition of human NCI-H460 cell growth in a cell viability assay.

OS-RC-2 = assay type: functional, cell-based, Homo sapiens; details: Homo sapiens, OS-RC-2;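 note: growth inhibition of human OS-RC-2 cells, measured by a cell viability assay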
Description: SANGER: Inhibition of human OS-RC-2 cell growth in a cell viability assay.

RH-18 = assay type: functional, cell-based; details: Homo sapiens, Rh18;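 note: growth inhibition of human RH-18 cells, read out with a cell viability assay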
Description: SANGER: Inhibition of human RH-18 cell growth in a cell viability assay.

SK-N-AS = assay type: functional, cell-based, Homo sapiens; details: Homo sapiens, SK-N-AS;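 note: growth inhibition of human SK-N-AS cells, measured with a cell viability assay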
Description: SANGER: Inhibition of human SK-N-AS cell growth in a cell viability assay.

SK-OV-3 = assay type: functional, cell-based, Homo sapiens; details: Homo sapiens, SK-OV-3;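 note: growth inhibition of SK-OV-3 human cells, read out with a cell viability assay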
Description: SANGER: Inhibition of human SK-OV-3 cell growth in a cell viability assay.

SW900 = assay type: functional, cell-based; details: Homo sapiens;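 note: IC50 is the concentration that inhibits SW900 cell growth, measured by a cell viability assay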
Description: SANGER: Inhibition of human SW900 cell growth in a cell viability assay.

8-MG-BA = assay type: functional, cell-based, Homo sapiens; details: Homo sapiens, 8-MG-BA;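 note: growth inhibition of 8-MG-BA cells, read out with a cell viability assay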
Description: SANGER: Inhibition of human 8-MG-BA cell growth in a cell viability assay.

A549 = assay type: functional, cell-based; details: Homo sapiens;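 note: growth inhibition of A549 cells, read out with a cell viability assay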
Description: SANGER: Inhibition of human A549 cell growth in a cell viability assay.

BEN = assay type: functional, cell-based, Homo sapiens; details: Homo sapiens, BEN;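 note: growth inhibition of the BEN cell line, read out with a cell viability assay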
Description: SANGER: Inhibition of human BEN cell growth in a cell viability assay.

C8166 = assay type: functional, cell-based; details: Homo sapiens;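 note: growth inhibition of human C8166 cells measured by a cell viability assay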
Description: SANGER: Inhibition of human C8166 cell growth in a cell viability assay.

CAL-39 = assay type: functional, cell-based, Homo sapiens; details: Homo sapiens, CAL-39;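 note: cell viability assay measuring growth inhibition of CAL-39 cells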
Description: SANGER: Inhibition of human CAL-39 cell growth in a cell viability assay.

TI-73 = assay type: functional, cell-based; details: Homo sapiens;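 note: cell viability assay measuring how much compounds suppress growth of the cultured cell line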
Description: SANGER: Inhibition of human TI-73 cell growth in a cell viability assay.

CAS-1 = assay type: functional, cell-based, Homo sapiens; details: Homo sapiens, CAS-1;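 note: growth inhibition of CAS-1 cells, measured with a cell viability assay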
COLO-679 = assay type: functional, cell-based, Homo sapiens; details: Homo sapiens, COLO-679
Description: SANGER: Inhibition of human COLO-679 cell growth in a cell viability assay.

| SMILES | IC50 (D-566MG) [nM] | IC50 (EFO-21) [nM] | IC50 (EPLC-272H) [nM] | IC50 (EW-22) [nM] | IC50 (HCC70) [nM] | IC50 (K5) [nM] | IC50 (KARPAS-299) [nM] | IC50 (KGN) [nM] | IC50 (KNS-62) [nM] | IC50 (KYSE-70 cell line) [nM] | IC50 (MDA-MB-361) [nM] | IC50 (MEL-JUSO) [nM] | IC50 (MKN-28) [nM] | IC50 (NCI-H1666) [nM] | IC50 (NCI-H2029) [nM] | IC50 (NCI-H2030) [nM] | IC50 (NCI-H28) [nM] | IC50 (OS-RC-2) [nM] | IC50 (RH-18) [nM] | IC50 (SK-N-AS) [nM] | other results |
| --- | --- | --- | --- | --- | --- | --- | --- | --- | --- | --- | --- | --- | --- | --- | --- | --- | --- | --- | --- | --- | --- |
| CCOc1nc(NC(=O)Cc2cc(OC)ccc2OC)cc(N)c1C#N | > 10000 | > 10000 | > 10000 | > 10000 | > 10000 | > 10000 | > 10000 | > 10000 | > 10000 | > 10000 | > 10000 | > 10000 | > 10000 | > 10000 | > 10000 | > 10000 | > 10000 | > 10000 | > 10000 | > 10000 | IC50 (NCI-H460): > 10000 nM; IC50 (SK-OV-3): > 10000 nM; IC50 (SW900): > 10000 nM; IC50 (8-MG-BA): > 10000 nM; IC50 (A549): > 10000 nM; IC50 (BEN): > 10000 nM; IC50 (C8166): > 10000 nM; IC50 (CAL-39): > 10000 nM; IC50 (TI-73): > 10000 nM; IC50 (CAS-1): > 10000 nM; IC50 (COLO-679): > 10000 nM |
| CC(=O)O[C@@H]1[C@@H](OC(C)=O)[C@@H](O)[C@H](Oc2c(-c3ccc(O)cc3)oc3cc(O)cc(O)c3c2=O)O[C@H]1C | > 10000 | > 10000 | > 10000 | > 10000 | > 10000 | > 10000 | > 10000 | > 10000 | > 10000 | > 10000 | > 10000 | > 10000 | > 10000 | > 10000 | > 10000 | > 10000 | > 10000 | > 10000 | > 10000 | > 10000 | IC50 (NCI-H460): > 10000 nM; IC50 (SK-OV-3): > 10000 nM; IC50 (SW900): > 10000 nM; IC50 (8-MG-BA): > 10000 nM; IC50 (A549): > 10000 nM; IC50 (BEN): > 10000 nM; IC50 (C8166): > 10000 nM; IC50 (CAL-39): > 10000 nM; IC50 (TI-73): > 10000 nM; IC50 (CAS-1): > 10000 nM; IC50 (COLO-679): > 10000 nM |
| CN(C)C/C=C/C(=O)Nc1cc2c(Nc3ccc(F)c(Cl)c3)ncnc2cc1O[C@H]1CCOC1 [AFATINIB] | > 500 | > 500 | > 500 | > 500 | > 500 | > 500 | > 500 | > 500 | > 500 | > 500 | > 500 | > 500 | > 500 | > 500 | > 500 | > 500 | > 500 | > 500 | > 500 | > 500 | IC50 (NCI-H460): > 500 nM; IC50 (SK-OV-3): > 500 nM; IC50 (SW900): > 500 nM; IC50 (8-MG-BA): > 500 nM; IC50 (A549): > 500 nM; IC50 (BEN): > 500 nM; IC50 (C8166): > 500 nM; IC50 (CAL-39): 118 nM; IC50 (TI-73): 147 nM; IC50 (CAS-1): > 500 nM; IC50 (COLO-679): > 500 nM |
| O=C(NOCC1CC1)c1ccc(F)c(F)c1Nc1ccc(I)cc1Cl [CI-1040] | 6540 | > 10000 | 5000 | > 10000 | 2020 | 431 | > 10000 | 9840 | 2510 | > 10000 | > 10000 | 5740 | > 10000 | 6080 | > 10000 | > 10000 | > 10000 | > 10000 | > 10000 | 1080 | IC50 (NCI-H460): > 10000 nM; IC50 (SK-OV-3): > 10000 nM; IC50 (SW900): > 10000 nM; IC50 (8-MG-BA): > 10000 nM; IC50 (A549): 1200 nM; IC50 (BEN): > 10000 nM; IC50 (C8166): > 10000 nM; IC50 (CAL-39): 2900 nM; IC50 (TI-73): > 10000 nM; IC50 (CAS-1): > 10000 nM; IC50 (COLO-679): 327 nM |
| Nc1ccn([C@@H]2O[C@H](CO)[C@@H](O)[C@@H]2O)c(=O)n1 [CYTARABINE] | 269 | 1550 | 1450 | 668 | > 2000 | 43.2 | > 2000 | > 2000 | > 2000 | 1860 | > 2000 | 85.8 | > 2000 | 1580 | > 2000 | 1050 | 1820 | 1580 | > 2000 | 450 | IC50 (NCI-H460): > 2000 nM; IC50 (SK-OV-3): > 2000 nM; IC50 (SW900): 1620 nM; IC50 (8-MG-BA): 341 nM; IC50 (A549): 49.7 nM; IC50 (BEN): > 2000 nM; IC50 (C8166): > 2000 nM; IC50 (CAL-39): 998 nM; IC50 (TI-73): 613 nM; IC50 (CAS-1): > 2000 nM; IC50 (COLO-679): > 2000 nM |
| CC(=O)O[C@@]12CO[C@@H]1C[C@H](O)[C@@]1(C)C(=O)[C@H](O)C3=C(C)[C@@H](OC(=O)[C@H](O)[C@@H](NC(=O)OC(C)(C)C)c4ccccc4)C[C@@](O)([C@@H](OC(=O)c4ccccc4)[C@H]21)C3(C)C [DOCETAXEL] | 0.182 | > 10 | 1.11 | > 10 | 2.77 | 0.778 | > 10 | 2.47 | 1.12 | 6.24 | 2.81 | 6.39 | 3.17 | 5.05 | > 10 | > 10 | 3.34 | > 10 | > 10 | 5.35 | IC50 (SK-OV-3): > 10 nM; IC50 (SW900): 7.55 nM; IC50 (8-MG-BA): 0.589 nM; IC50 (A549): 0.882 nM; IC50 (BEN): > 10 nM; IC50 (C8166): > 10 nM; IC50 (CAL-39): 1.63 nM; IC50 (TI-73): 1.44 nM; IC50 (CAS-1): > 10 nM; IC50 (COLO-679): > 10 nM |
| O=c1cc(-c2cccc3c2Sc2ccccc2S3)oc(N2CCOCC2)c1 [KU-55933] | > 10000 | > 10000 | > 10000 | > 10000 | > 10000 | > 10000 | > 10000 | > 10000 | > 10000 | > 10000 | > 10000 | > 10000 | > 10000 | > 10000 | > 10000 | > 10000 | > 10000 | > 10000 | > 10000 | > 10000 | IC50 (NCI-H460): > 10000 nM; IC50 (SK-OV-3): > 10000 nM; IC50 (SW900): > 10000 nM; IC50 (8-MG-BA): > 10000 nM; IC50 (A549): > 10000 nM; IC50 (BEN): > 10000 nM; IC50 (C8166): > 10000 nM; IC50 (CAL-39): > 10000 nM; IC50 (TI-73): > 10000 nM; IC50 (CAS-1): > 10000 nM; IC50 (COLO-679): > 10000 nM |
| CN(Cc1cnc2nc(N)nc(N)c2n1)c1ccc(C(=O)N[C@@H](CCC(=O)O)C(=O)O)cc1 [METHOTREXATE] | > 200 | > 200 | > 200 | > 200 | > 200 | 59.8 | > 200 | 150 | > 200 | > 200 | > 200 | > 200 | > 200 | > 200 | > 200 | > 200 | > 200 | > 200 | > 200 | > 200 | IC50 (SW900): > 200 nM; IC50 (8-MG-BA): > 200 nM; IC50 (A549): > 200 nM; IC50 (BEN): > 200 nM; IC50 (C8166): > 200 nM; IC50 (CAL-39): > 200 nM; IC50 (TI-73): > 200 nM; IC50 (CAS-1): > 200 nM; IC50 (COLO-679): > 200 nM |
| O=C(c1cc(Cc2n[nH]c(=O)c3ccccc23)ccc1F)N1CCN(C(=O)C2CC2)CC1 [OLAPARIB] | 2450 | > 5000 | > 5000 | 4360 | > 5000 | > 5000 | > 5000 | > 5000 | > 5000 | > 5000 | > 5000 | > 5000 | > 5000 | > 5000 | > 5000 | > 5000 | > 5000 | > 5000 | > 5000 | > 5000 | IC50 (SW900): > 5000 nM; IC50 (8-MG-BA): > 5000 nM; IC50 (A549): > 5000 nM; IC50 (BEN): > 5000 nM; IC50 (C8166): > 5000 nM; IC50 (CAL-39): > 5000 nM; IC50 (TI-73): > 5000 nM; IC50 (CAS-1): > 5000 nM; IC50 (COLO-679): > 5000 nM |
